Reference: patent publication US8604085B2, “Bupropion hydrobromide polymorphs” (Valeant International Bermuda, priority 2008, dated 2013)
Where two headings read alike, the source gives them in different places.

Legend:
Assay type in all cases: physicochemical
[1] = Precipitation from oversaturated solution at 100° C., cooling rate 0.45° C./min
Description: Bupropion hydrobromide Form I was dissolved at 100° C. in solvent to obtain the oversaturated solution. The cooling rate applied was 0.45° C./min. The samples were filtered and analyzed by X-ray diffraction. Form I converts into Form VI using 1-Propanol, and into Form V using 1,4-Dioxane. The other experiments yield only Form I. See Table 55 for Form I precipitation results by oversaturated solution. […]

[2] = Qualitative solubility screening; conditions: thermodynamic from solid, 50 mg in 4 mL, read-out: Solubility at Room Temp (RT)
Description: Bupropion hydrobromide (50 mg) was introduced in 4 mL of solvent under stirring for about 1 hour at room temperature. See Table 41 for the qualitative solubility data.

[3] = Release of bupropion base from the salt
Description: It was previously observed that when 150 mg of bupropion HCl was tested for its release of bupropion, the base value that was released was 130 mg. However, when 150 mg of bupropion HBr was tested, the base value released was only 112 mg. Thus, the amount of bupropion HBr had to be increased in order to increase the base value from 112 mg to 130 mg, which was the target.

[4] = Forced degradation studies of the API's in the presence of standard excipients; conditions: with standard excipients; about 24 and about 48 hours at about 55° C., about 55° C. and 100% relative humidity, about 105° C.
Description: Forced degradation studies were also performed on bupropion hydrobromide and bupropion hydrochloride API's in the presence of standard excipients used in pharmaceutical formulations.

SMILES: Br.CC(NC(C)(C)C)C(=O)c1cccc(Cl)c1 (single isomer, unassigned) [Form I]
- Precipitation Result ([1]; solvent 1,4-Dioxane): Form V
- Precipitation Result ([1]; solvent 1-Butanol): Form I
- Precipitation Result ([1]; solvent 1-Methyl-2-Pyrrolidone): Form I
- Precipitation Result ([1]; solvent 1-Propanol): Form VI
- Precipitation Result ([1]; solvent 2-Methoxy Ethanol): Form I
- Precipitation Result ([1]; solvent 2-Methyl-1-Propanol): Form I
- Precipitation Result ([1]; solvent (±)2-Butanol): Form I
- Precipitation Result ([1]; solvent Dimethyl formamide): Form I
- Precipitation Result ([1]; solvent Dimethyl sulfoxyde): Form I
- Precipitation Result ([1]; solvent Nitromethane): Form I
- Precipitation Result ([1]; solvent Water): Form I
- Precipitation Result ([1]; solvent p-Xylene): Form I

SMILES: Br.CC(NC(C)(C)C)C(=O)c1cccc(Cl)c1 (stereo not drawn) [Bupropion hydrobromide, 3′-chloro-2-t-butylamino-1-propiophenone hydrobromide]
- solubility ([2]; organic solvent or mixture, solvent 1,2-Dimethoxy Ethane): < 12.5 mg/mL
- solubility ([2]; organic solvent or mixture, solvent 1-Butanol): > 12.5 mg/mL
- solubility ([2]; organic solvent or mixture, solvent 1-Methyl-2-Pyrrolidone): > 12.5 mg/mL
- solubility ([2]; organic solvent or mixture, solvent 1-Octanol): < 12.5 mg/mL
- solubility ([2]; organic solvent or mixture, solvent 1-Propanol): > 12.5 mg/mL
- solubility ([2]; organic solvent or mixture, solvent 2-Methoxy Ethanol): > 12.5 mg/mL
- solubility ([2]; organic solvent or mixture, solvent 2-Methyl-1-Propanol): > 12.5 mg/mL
- solubility ([2]; organic solvent or mixture, solvent 2-Propanol): > 12.5 mg/mL
- solubility ([2]; organic solvent or mixture, solvent 3-Pentanone): < 12.5 mg/mL
- solubility ([2]; organic solvent or mixture, solvent 4-Methyl-2-Pentanone): < 12.5 mg/mL
- solubility ([2]; organic solvent or mixture, solvent (±)2-Butanol): < 12.5 mg/mL
- solubility ([2]; organic solvent or mixture, solvent Acetone): < 12.5 mg/mL
- solubility ([2]; organic solvent or mixture, solvent Acetonitrile): > 12.5 mg/mL
- solubility ([2]; organic solvent or mixture, solvent Benzonitrile): < 12.5 mg/mL
- solubility ([2]; organic solvent or mixture, solvent Benzyl Alcohol): > 12.5 mg/mL
- solubility ([2]; organic solvent or mixture, solvent Chloroform): > 12.5 mg/mL
- solubility ([2]; organic solvent or mixture, solvent Cyclohexane): < 12.5 mg/mL
- solubility ([2]; organic solvent or mixture, solvent Dichloromethane): > 12.5 mg/mL
- solubility ([2]; organic solvent or mixture, solvent Diethyl Carbonate): < 12.5 mg/mL
- solubility ([2]; organic solvent or mixture, solvent Diethyl Ether): < 12.5 mg/mL
- solubility ([2]; organic solvent or mixture, solvent Dimethil sulfoxyde): > 12.5 mg/mL
- solubility ([2]; organic solvent or mixture, solvent Dimethyl Formamide): > 12.5 mg/mL
- solubility ([2]; organic solvent or mixture, solvent Dioxane): < 12.5 mg/mL
- solubility ([2]; organic solvent or mixture, solvent Ethanol): > 12.5 mg/mL
- solubility ([2]; organic solvent or mixture, solvent Ethyl Acetate): < 12.5 mg/mL
- solubility ([2]; organic solvent or mixture, solvent Ethyl Benzoate): < 12.5 mg/mL
- solubility ([2]; organic solvent or mixture, solvent Ethyl Formate): < 12.5 mg/mL
- solubility ([2]; organic solvent or mixture, solvent Iso-Propyl-Ether): < 12.5 mg/mL
- solubility ([2]; organic solvent or mixture, solvent Isopropyl Acetate): < 12.5 mg/mL
- solubility ([2]; organic solvent or mixture, solvent Mesitylene): < 12.5 mg/mL
- solubility ([2]; organic solvent or mixture, solvent Methanol): > 12.5 mg/mL
- solubility ([2]; organic solvent or mixture, solvent Methyl Benzoate): < 12.5 mg/mL
- solubility ([2]; organic solvent or mixture, solvent Methyl Ethyl Ketone): < 12.5 mg/mL
- solubility ([2]; organic solvent or mixture, solvent Methyl-Cyclohexan): < 12.5 mg/mL
- solubility ([2]; organic solvent or mixture, solvent Nitrobenezene): < 12.5 mg/mL
- solubility ([2]; organic solvent or mixture, solvent Nitromethane): > 12.5 mg/mL
- solubility ([2]; organic solvent or mixture, solvent Propyl Acetate): < 12.5 mg/mL
- solubility ([2]; organic solvent or mixture, solvent Tert-Butanol): < 12.5 mg/mL
- solubility ([2]; organic solvent or mixture, solvent Tetrahydrofuran): < 12.5 mg/mL
- solubility ([2]; organic solvent or mixture, solvent Toluene): < 12.5 mg/mL
- solubility ([2]; organic solvent or mixture, solvent n-Hexan): < 12.5 mg/mL
- solubility ([2]; organic solvent or mixture, solvent n-Hexane): < 12.5 mg/mL
- solubility ([2]; organic solvent or mixture, solvent p-Xylene): < 12.5 mg/mL
- solubility ([2]; organic solvent or mixture, solvent t-Butyl Methyl Ether): < 12.5 mg/mL
- solubility ([2]; water, solvent Water): > 12.5 mg/mL
- base value that was released ([3]; 150 mg of the salt tested): 112 mg
- base value that was released ([3]; 174 mg of the salt tested): 130 mg
- amount of degradation (bupropion degradation impurities) versus bupropion hydrochloride [4]: lowest amount of degradation
